One data set concerns the target T1, hGLP1R (Homo sapiens, UniProt P43220).
T1 construct: expressed in transfected cells; host or cells: HEK-293 CRE-luciferase reporter cells
The experiment in a line: hGLP1R CreLuc assay in 0.5% and 100% plasma (HEK-293 CRE-luciferase reporter cells). To be noted: HEK-293 reporter cells. Type of data set: cell-based. On the technique in general: In a reporter assay the amount or activity of a reporter protein is the signal.

The target of another data set is T2, hGIPR (Homo sapiens, UniProt P48546).
T2 construct: expressed in transfected cells; host or cells: CHO CRE-luciferase reporter cells
T2 sequence (P48546 22-466): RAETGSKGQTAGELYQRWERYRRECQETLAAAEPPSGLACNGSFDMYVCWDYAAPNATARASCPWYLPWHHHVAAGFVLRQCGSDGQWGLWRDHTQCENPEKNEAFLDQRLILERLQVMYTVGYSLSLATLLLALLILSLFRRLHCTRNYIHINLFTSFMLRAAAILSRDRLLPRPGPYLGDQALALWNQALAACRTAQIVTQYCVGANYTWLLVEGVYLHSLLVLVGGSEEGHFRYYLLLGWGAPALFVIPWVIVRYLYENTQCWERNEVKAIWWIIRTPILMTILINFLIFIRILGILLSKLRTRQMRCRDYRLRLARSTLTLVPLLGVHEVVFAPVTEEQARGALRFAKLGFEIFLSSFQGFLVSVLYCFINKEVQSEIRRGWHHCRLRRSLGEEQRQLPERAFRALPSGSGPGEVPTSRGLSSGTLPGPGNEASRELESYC
The experiment in a line: hGIPR CreLuc assay in 0.5% and 100% plasma (CHO CRE-luciferase reporter cells). Type of data set: cell-based.

Data set [1] in a line: Solubility in 0.1 M phosphate buffer at pH 7. To be noted: 0.1 M phosphate buffer at pH 7, 10 mg/mL final peptide concentration, shaking 2 hours at room temperature, peptides as TFA-salts; measured sample pH 6.5-7.0. Type of data set: physicochemical.
A short description of data set [2]: Mouse PK after intravenous application. It is filed as in vivo. As to conditions: plasma, male NMRI mice, intravenous 30-60 nmol/kg, non-compartmental analysis. The procedure, abridged:
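Male NMRI mice (30–40 g) dosed 30-60 nmol/kg by tail vein in 50 mM phosphate buffer pH 7.4/3.5% mannitol. Saphenous EDTA blood sampled from conscious animals up to 56 h; plasma peptide quantified by LC-MS. Parameters from non-compartmental analysis of individual profiles.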

The next data set deals with Normal NMRI Mice. The experiment in a line: Effect on acute food intake in normal NMRI mice. It is filed as in vivo. To be noted: male NMRI mice, single subcutaneous dose 100 nmol/kg, 24 hours food intake normalized to vehicle group. The method, then: Male NMRI mice were obtained from Janvier (Janvier Labs, France) or from Charles River (Charles River Research Models & Services Germany GmbH) at the age of 3 weeks. The animals get a microchip (Datamars, Slim Microchip T-SL) for individual identification after delivery. They were housed with 4 mice per cage under a 12/12 dark-light cycle, light off at 3 p.m. Room temperature was controlled to 21° C.+/−1° C. and humidity 60%+/−20%. Mice had ad libitum access to regular rodent chow (KLIBA Nafag 3040 or Altromin 1324, Brogaarden, Denmark) and tap water.
Latest transfer into the HM2-System of MBRose, Denmark (real-time monitoring system of food- and water intake) of the animals 5 days before study start, to allow acclimatization to experimental conditions. As the animals were uniquely identified with the microchips, each individual animal was identified by its own microchip upon entry and exit from the food channel via antennae. Randomization of the mice for each study group (n=8; age earliest 6 weeks old) was based on food intake (middle of last three days 24 h-interval) and bodyweight directly before start of the study. A vehicle treated (50 mM phosphate buffer pH 7.4 with 3.5% mannitol) group was included in each experiment. To have the same nutrition standard for each animal the food access was locked eight hours before dark phase. One hour before night, the animals were once treated subcutaneously with the test peptide. Food intake was reported hourly for a period of 24 hours.

Setting [3] is: 0.5% human plasma, read-out: hGLP1R 0.5% hP.
The mark [4] stands for this setting: 100% human plasma, read-out: hGLP1R 100% hP.
[5] abbreviates: 0.5% human plasma, read-out: hGIPR 0.5% hP.

This is an account of results in patent US20250382344A1, “Soluble GLP1/GIP/NPY2 Receptor Triple Agonists” (Boehringer Ingelheim International GmH, priority 2024, published 2025).

Read-outs that look alike come from different tables or passages of the source.

T1 sequence (P43220 24-463): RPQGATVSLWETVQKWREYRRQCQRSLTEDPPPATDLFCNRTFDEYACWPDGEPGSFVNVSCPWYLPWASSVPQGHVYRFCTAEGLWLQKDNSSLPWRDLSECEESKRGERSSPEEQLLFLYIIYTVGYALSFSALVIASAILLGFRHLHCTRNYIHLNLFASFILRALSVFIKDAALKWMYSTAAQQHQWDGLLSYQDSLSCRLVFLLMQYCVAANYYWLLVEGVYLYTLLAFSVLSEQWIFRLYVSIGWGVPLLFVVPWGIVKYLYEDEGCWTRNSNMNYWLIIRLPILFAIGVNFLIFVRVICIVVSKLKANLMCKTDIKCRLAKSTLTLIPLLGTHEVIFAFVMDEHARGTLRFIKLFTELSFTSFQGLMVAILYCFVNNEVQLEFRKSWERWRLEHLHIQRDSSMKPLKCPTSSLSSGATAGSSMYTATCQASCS

On to `CC[C@H](C)[C@H](NC(=O)[C@H](CC(C)C)NC(=O)[C@H](Cc1c[nH]cn1)NC(=O)[C@H](CCCNC(=N)N)NC(=O)[C@@H](NC(=O)[C@H](Cc1ccccc1)NC(=O)[C@H](C)NC(=O)C(C)(C)NC(=O)[C@H](CCC(N)=O)NC(=O)[C@H](C)NC(=O)[C@H](CCC(N)=O)NC(=O)[C@H](CCCCN)NC(=O)[C@H](CCC(=O)O)NC(=O)[C@H](CC(C)C)NC(=O)C(C)(C)NC(=O)[C@@H](NC(=O)[C@H](CO)NC(=O)[C@H](Cc1ccc(O)cc1)NC(=O)[C@H](CC(=O)O)NC(=O)[C@H](CO)NC(=O)[C@@H](NC(=O)[C@H](Cc1ccccc1)NC(=O)[C@@H](NC(=O)CNC(=O)[C@H](CCC(=O)O)NC(=O)C(C)(C)NC(=O)[C@@H](N)Cc1ccc(O)cc1)[C@@H](C)O)[C@@H](C)O)[C@@H](C)CC)C(C)C)C(=O)N[C@@H](CC(N)=O)C(=O)N[C@@H](CCCCNC(=O)CC[C@H](NC(=O)CC[C@H](NC(=O)CC[C@H](NC(=O)CC[C@H](NC(=O)CC[C@H](NC(=O)CC[C@H](NC(=O)CCCCCCCCCCCCCCCCCCC(=O)O)C(=O)O)C(=O)O)C(=O)O)C(=O)O)C(=O)O)C(=O)O)C(=O)NC(C)(C)C(=O)N[C@H](C(=O)N[C@@H](CCCNC(=N)N)C(=O)N[C@@H](CCC(N)=O)C(=O)N[C@@H](CCCNC(=N)N)C(=O)N[C@@H](Cc1ccc(O)cc1)C(N)=O)[C@@H](C)O` [Compound 3, Y-Aib-E-G-T-F-T-S-D-Y-S-I-Aib-L-E-K-Q-A-Q-Aib-A-F-V-R-H-L-I-N-K(1,3)-Aib-T-R-Q-R-Y-NH2.C20DA-gGlu-gGlu-gGlu-gGlu-gGlu-gGlu(1,2)], for which the EC50 on hGLP1R (setting [3]) stood at 3000 pM; at hGLP1R (setting [4]), 13900 pM; on hGIPR (setting [5]), 0.7 nM. Besides, in data set [1], the solubility at 2 h was determined as 6900 µg/mL. Further, the MRT in data set [2] was 17.2 h. In addition, in the data set on Normal NMRI Mice, the “Acute Food Intake 24 hours 100 nmol/kg [% CTL]” value was 74 % CTL.
For the molecule `CC[C@H](C)[C@H](NC(=O)[C@H](CC(C)C)NC(=O)[C@H](Cc1c[nH]cn1)NC(=O)[C@H](CCCNC(=N)N)NC(=O)[C@@H](NC(=O)[C@H](Cc1ccccc1)NC(=O)[C@H](C)NC(=O)C(C)(C)NC(=O)[C@H](CCC(N)=O)NC(=O)[C@H](C)NC(=O)[C@H](CCC(N)=O)NC(=O)[C@H](CCCCN)NC(=O)[C@H](CCC(=O)O)NC(=O)[C@H](CC(C)C)NC(=O)C(C)(C)NC(=O)[C@@H](NC(=O)[C@H](CO)NC(=O)[C@H](CC(C)C)NC(=O)[C@H](CC(=O)O)NC(=O)[C@H](CO)NC(=O)[C@@H](NC(=O)[C@H](Cc1ccccc1)NC(=O)[C@@H](NC(=O)CNC(=O)[C@H](CCC(=O)O)NC(=O)C(C)(C)NC(=O)[C@@H](N)Cc1ccc(O)cc1)[C@@H](C)O)[C@@H](C)O)[C@@H](C)CC)C(C)C)C(=O)N[C@@H](CC(N)=O)C(=O)N[C@@H](CCCCNC(=O)[C@@H](N)CCCCNC(=O)CC[C@H](NC(=O)CC[C@H](NC(=O)CC[C@H](NC(=O)CC[C@H](NC(=O)CC[C@H](NC(=O)CC[C@H](NC(=O)CCCCCCCCCCCCCCCCCCC(=O)O)C(=O)O)C(=O)O)C(=O)O)C(=O)O)C(=O)O)C(=O)O)C(=O)NC(C)(C)C(=O)N[C@H](C(=O)N[C@@H](CCCNC(=N)N)C(=O)N[C@@H](CCC(N)=O)C(=O)N[C@@H](CCCNC(=N)N)C(=O)N[C@@H](Cc1ccc(O)cc1)C(N)=O)[C@@H](C)O` [Compound 20, Y-Aib-E-G-T-F-T-S-D-L-S-I-Aib-L-E-K-Q-A-Q-Aib-A-F-V-R-H-L-I-N-K(1,3)-Aib-T-R-Q-R-Y-NH2.C20DA-gGlu-gGlu-gGlu-gGlu-gGlu-gGlu-eLys(1,2)], the EC50 was 0.4 nM at hGIPR (hGIPR 0.5% hP (nM), 0.5% human plasma) and 6.9 nM on hGIPR (hGIPR 100% hP (nM), 100% human plasma). In data set [1], the solubility at 2 h turned out to be 8500 µg/mL. Besides, in the data set on Normal NMRI Mice, the “Acute Food Intake 24 hours 100 nmol/kg [% CTL]” value came to 79 % CTL.
`CC[C@H](C)[C@H](NC(=O)[C@H](CC(C)C)NC(=O)[C@H](Cc1c[nH]cn1)NC(=O)[C@H](CCCNC(=N)N)NC(=O)[C@@H](NC(=O)[C@H](Cc1ccccc1)NC(=O)[C@H](C)NC(=O)C(C)(C)NC(=O)[C@H](CCC(N)=O)NC(=O)[C@H](C)NC(=O)[C@H](CCC(N)=O)NC(=O)[C@H](CCCCN)NC(=O)[C@H](CCC(=O)O)NC(=O)[C@H](CC(C)C)NC(=O)[C@](C)(CC(C)C)NC(=O)[C@@H](NC(=O)[C@H](CO)NC(=O)[C@H](Cc1ccc(O)cc1)NC(=O)[C@H](CC(=O)O)NC(=O)[C@H](CO)NC(=O)[C@@H](NC(=O)[C@H](Cc1ccccc1)NC(=O)[C@@H](NC(=O)CNC(=O)[C@H](CCC(=O)O)NC(=O)C(C)(C)NC(=O)[C@@H](N)Cc1ccc(O)cc1)[C@@H](C)O)[C@@H](C)O)[C@@H](C)CC)C(C)C)C(=O)N[C@@H](CC(N)=O)C(=O)N[C@@H](CCCCNC(=O)[C@@H](N)CCCCNC(=O)CC[C@H](NC(=O)CC[C@H](NC(=O)CC[C@H](NC(=O)CC[C@H](NC(=O)CC[C@H](NC(=O)CC[C@H](NC(=O)CC[C@H](NC(=O)CCCCCCCCCCCCCCCCCCC(=O)O)C(=O)O)C(=O)O)C(=O)O)C(=O)O)C(=O)O)C(=O)O)C(=O)O)C(=O)NC(C)(C)C(=O)N[C@H](C(=O)N[C@@H](CCCNC(=N)N)C(=O)N[C@@H](CCC(N)=O)C(=O)N[C@@H](CCCNC(=N)N)C(=O)N[C@@H](Cc1ccc(O)cc1)C(N)=O)[C@@H](C)O` [Compound 78, Y-Aib-E-G-T-F-T-S-D-Y-S-I-aMeL-L-E-K-Q-A-Q-Aib-A-F-V-R-H-L-I-N-K(1,3)-Aib-T-R-Q-R-Y-NH2.C20DA-gGlu-gGlu-gGlu-gGlu-gGlu-gGlu-gGlu-eLys(1,2)]: the EC50 on hGLP1R (setting [3]) stood at 200 pM; on hGIPR (setting [5]) it was 0.1 nM. Also, the solubility at 2 h in data set [1] was found to be 10300 µg/mL. For the same molecule, the “Acute Food Intake 24 hours 100 nmol/kg [% CTL]” value in the data set with Normal NMRI Mice is on record as 65 % CTL.
Turning to `CC[C@H](C)[C@H](NC(=O)[C@H](Cc1ccccc1)NC(=O)[C@H](C)NC(=O)C(C)(C)NC(=O)[C@H](CCC(N)=O)NC(=O)[C@H](C)NC(=O)[C@H](CCC(N)=O)NC(=O)[C@H](CCCCN)NC(=O)[C@H](CCC(=O)O)NC(=O)[C@H](CC(C)C)NC(=O)C(C)(C)NC(=O)[C@@H](NC(=O)[C@H](CO)NC(=O)[C@H](Cc1ccc(O)cc1)NC(=O)[C@H](CC(=O)O)NC(=O)[C@H](CO)NC(=O)[C@@H](NC(=O)[C@H](Cc1ccccc1)NC(=O)[C@@H](NC(=O)CNC(=O)[C@H](CCC(=O)O)NC(=O)C(C)(C)NC(=O)[C@@H](N)Cc1ccc(O)cc1)[C@@H](C)O)[C@@H](C)O)[C@@H](C)CC)C(=O)N[C@@H](CCCNC(=N)N)C(=O)N[C@@H](Cc1c[nH]cn1)C(=O)N[C@@H](CC(C)C)C(=O)N[C@H](C(=O)N[C@@H](CC(N)=O)C(=O)N[C@@H](CCCCNC(=O)[C@@H](N)CCCCNC(=O)CC[C@H](NC(=O)CC[C@H](NC(=O)CC[C@H](NC(=O)CC[C@H](NC(=O)CC[C@H](NC(=O)CC[C@H](NC(=O)CCCCCCCCCCCCCCCCC(=O)O)C(=O)O)C(=O)O)C(=O)O)C(=O)O)C(=O)O)C(=O)O)C(=O)NC(C)(C)C(=O)N[C@H](C(=O)N[C@@H](CCCNC(=N)N)C(=O)N[C@@H](CCC(N)=O)C(=O)N[C@@H](CCCNC(=N)N)C(=O)N[C@@H](Cc1ccc(O)cc1)C(N)=O)[C@@H](C)O)[C@@H](C)CC` [Compound 88, Y-Aib-E-G-T-F-T-S-D-Y-S-I-Aib-L-E-K-Q-A-Q-Aib-A-F-I-R-H-L-I-N-K(1,3)-Aib-T-R-Q-R-Y-NH2.C18DA-gGlu-gGlu-gGlu-gGlu-gGlu-gGlu-eLys(1,2)], the EC50 is 200 pM on hGLP1R (setting [3]); 1800 pM on hGLP1R (setting [4]); 0.1 nM on hGIPR (setting [5]); 1.7 nM on hGIPR (100% human plasma, read-out: hGIPR 100% hP). Also, the solubility at 2 h in data set [1] was 10400 µg/mL. The “Acute Food Intake 24 hours 100 nmol/kg [% CTL]” value in the data set with Normal NMRI Mice is listed as 47 % CTL.

One may read the solubility as how much of the substance goes into solution per volume. The MRT is the average time that molecules of a dose stay in the body.
